Experimental data: patent US20060040925A1, “Aminocyclohexene quinolines and their azaisosteric analogues with antibacterial activity” (priority 2002, published 2006)
Where a name gives a salt, the structure may show the parent alone. Read-outs that look alike come from different tables or passages of the source.

Assay: MIC of test compounds against various organisms
Format: cell-based
Experimental: The MIC (μg/ml) of test compounds against various organisms was determined including: S. epidermidis CL7, S. aureus WCUH29, S. pneumoniae 1629, S. pyogenes CN10, H. influenzae ATCC 49247, E.faecalis 2, M. catarrhalis Ravasio, E. coli 7623.

[1] = versus some of these organisms (of the eight strains; which ones not given), read-out: MIC
[2] = versus all these organisms (the eight strains of b406), read-out: MIC

| Structure (SMILES) | MIC [1] [µg/mL] | other results |
| --- | --- | --- |
| COc1ccc2nccc(NC(=O)[C@]3(O)C=C[C@@H](NCc4ccc5c(n4)NC(=O)CO5)CC3)c2n1 (racemic) [Example 2, (1R,4S)-1-Hydroxy-4-[(3-oxo-3,4-dihydro-2H-pyrido[3,2-b][1,4]oxazin-6-ylmethyl)-amino]-cyclohex-2-enecarboxylic acid (6-methoxy-[1,5]naphthyridin-4-yl)-amide dihydrochloride and (1S,4R)-1-Hydroxy-4-[(3-oxo-3,4-dihydro-2H-pyrido[3,2-b][1,4]oxazin-6-ylmethyl)-amino]-cyclohex-2-enecarboxylic acid (6-methoxy-[1,5]naphthyridin-4-yl)-amide dihydrochloride] |  | MIC: ≤ 2 µg/mL |
| COc1ccc2nccc(NC(=O)[C@@]3(O)C=C[C@H](NCc4ncc5c(n4)OCCO5)CC3)c2n1 [Example 7] | ≤ 1 |  |
| COc1ccc2nccc(NC(=O)[C@@]3(O)C=C[C@H](NCc4cc5c(cn4)OCCO5)CC3)c2c1F [Example 12] | ≤ 1 |  |
| COc1ccc2nccc(NC(=O)[C@@]3(O)C=C[C@H](NCc4cc5c(cn4)OCCO5)CC3)c2n1 [Example 3] |  | MIC [2]: ≤ 2 µg/mL |
| COc1ccc2nccc(NC(=O)[C@@]3(O)C=C[C@H](NCc4ccc5c(n4)OCCO5)CC3)c2n1 [Example 6] | ≤ 1 |  |
| COc1ccc2nccc(NC(=O)[C@]3(O)C=C[C@@H](NCc4ccc5c(n4)NC(=O)CS5)CC3)c2n1 (racemic) [Example 1, (1R,4S)-1-Hydroxy-4-[(3-oxo-3,4-dihydro-2H-pyrido[3,2-b][1,4]thiazin-6-ylmethyl)-amino]-cyclohex-2-enecarboxylic acid (6methoxy-[1,5]naphthyridin-4-yl)-amide dihydrochloride and (1S,4R)-1-Hydroxy-4-[(3-oxo-3,4-dihydro-2H-pyrido[3,2-b][1,4]thiazin-6-ylmethyl)-amino]-cyclohex-2-enecarboxylic acid (6-methoxy-[1,5]naphthyridin-4-yl)-amide dihydrochloride] |  | MIC: ≤ 2 µg/mL |
| COCCOc1c(F)ccc2nccc(NC(=O)[C@@]3(O)C=C[C@H](NCc4cc5c(cn4)OCCO5)CC3)c12 [Example 11] | ≤ 1 |  |
| COc1ccc2nccc(NC(=O)[C@@]3(O)C=C[C@H](NCc4cnc5c(c4)OCCO5)CC3)c2n1 [Example 5] |  | MIC [2]: ≤ 2 µg/mL |
